According to US4156724A, “N-acylamino-alpha-arylacetamido cephalosporins and antibacterial compositions and methods containing them” (Sumitomo Chemical Company, Limited, priority 1974, dated 1979):
Values after ≈ are worked out from the molar mass of the structure shown.

Columns and labels:
Type in all cases: cell-based
[1] = system: Staphylococcus aureus 209 P; assay: Minimum Inhibitory Concentration, Staphylococcus aureus 209 P; conditions: Staphylococcus aureus 209 P; for MIC: read-out: Minimum Inhibitory Concentration
Method: (§1) anti-microbial activity tests were carried out on the compounds obtained in the Examples.

[2] = system: Staphylococcus aureus FS 289; assay: Minimum Inhibitory Concentration, Staphylococcus aureus FS 289; conditions: Staphylococcus aureus FS 289, strain resistant to penicillin; for MIC: FS289, read-out: Minimum Inhibitory Concentration
Method: as §1
*Staphylococcus aureus FS 289: strain resistant to penicillin

Escherichia coli NIHJ = assay: Minimum Inhibitory Concentration, Escherichia coli NIHJ; conditions: Escherichia coli NIHJ; for MIC: read-out: Minimum Inhibitory Concentration
Method: as §1

[3] = system: Klebsiella pneumoniae 602; assay: Minimum Inhibitory Concentration, Klebsiella pneumoniae 602; conditions: for MIC: Klebsiella pneumoniae, 602, Klebsiella pneumoniae 602, read-out: Minimum Inhibitory Concentration
Method: as §1

Proteus vulgaris HX 19 = assay: Minimum Inhibitory Concentration, Proteus vulgaris HX 19; conditions: Proteus vulgaris HX 19; for MIC: HX19, read-out: Minimum Inhibitory Concentration
Method: as §1

[4] = system: Pseudomonas aeruginosa 104; assay: Minimum Inhibitory Concentration, Pseudomonas aeruginosa 104; conditions: Pseudomonas aeruginosa 104; for MIC: read-out: Minimum Inhibitory Concentration
Method: as §1

Serratia No. 72 = assay: Minimum Inhibitory Concentration, Serratia No. 72
Method: as §1

[5] = system: Enterobacter aerogeneus No. 75; assay: Minimum Inhibitory Concentration, Enterobacter aerogeneus No. 75; conditions: Enterobacter aerogeneus No. 75; for MIC: read-out: Minimum Inhibitory Concentration
Method: as §1

MIC [1] [µg/mL] | MIC [2] [µg/mL] | MIC (Escherichia coli NIHJ) [µg/mL] | MIC [3] [µg/mL] | MIC (Proteus vulgaris HX 19) [µg/mL] | MIC [4] [µg/mL] | MIC (Serratia No. 72) [µg/mL] | MIC [5] [µg/mL] | SMILES | Minimum Inhibitory Concentration [1] [µg/mL] | Minimum Inhibitory Concentration [2] [µg/mL] | Minimum Inhibitory Concentration (Escherichia coli NIHJ) [µg/mL] | Minimum Inhibitory Concentration ([3]; Klebsiella pneumoniae 602) [µg/mL] | Minimum Inhibitory Concentration (Proteus vulgaris HX 19) [µg/mL] | Minimum Inhibitory Concentration [4] [µg/mL] | Minimum Inhibitory Concentration (Serratia No. 72) [µg/mL] | Minimum Inhibitory Concentration [5] [µg/mL]
0.78 (≈ 1.2 µM) | 12.5 (≈ 19.2 µM) | 3.13 (≈ 4.81 µM) | 6.25 (≈ 9.61 µM) | 0.39 (≈ 0.599 µM) | 3.13 (≈ 4.81 µM) | 12.5 (≈ 19.2 µM) | 6.25 (≈ 9.61 µM) | Cn1nnnc1SCC1=C(C(=O)O)N2C(=O)C(NC(=O)[C@H](NC(=O)c3cnc4cncnc4c3O)c3ccc(O)cc3)C2SC1 (some centres unmarked) [Example 154] |  |  |  |  |  |  |  | 
0.78 (≈ 1.13 µM) | 6.25 (≈ 9.02 µM) | 3.13 (≈ 4.52 µM) | 1.56 (≈ 2.25 µM) | 0.2 (≈ 0.289 µM) | 3.13 (≈ 4.52 µM) | 12.5 (≈ 18 µM) | 3.13 (≈ 4.52 µM) | CN(C)c1ccc2ncc(C(=O)NC(C(=O)NC3C(=O)N4C(C(=O)O)=C(CSc5nnnn5C)CSC34)c3ccc(O)cc3)c(O)c2n1 (centres unmarked) [Example 166] |  |  |  |  |  |  |  | 
1.56 (≈ 2.35 µM) | 6.25 (≈ 9.4 µM) | 1.56 (≈ 2.35 µM) | 3.13 (≈ 4.71 µM) | 0.1 (≈ 0.15 µM) | 6.25 (≈ 9.4 µM) | 12.5 (≈ 18.8 µM) | 3.13 (≈ 4.71 µM) | Cc1nnc(SCC2=C(C(=O)O)N3C(=O)C(NC(=O)[C@H](NC(=O)c4cnc5cccnc5c4O)c4ccc(N)cc4)C3SC2)s1 (stereo partly drawn) [Example 52, 7-[D-α-(4-Hydroxy-1,5-naphthyridine-3-carbonamido)-α-p-aminophenylacetamido]-3-(2-methyl-1,3,4-thiadiazol-5yl)thiomethyl-3-cephem-4-carboxylic acid] |  |  |  |  |  |  |  | 
0.39 (≈ 0.596 µM) | 12.5 (≈ 19.1 µM) | 6.25 (≈ 9.55 µM) | 3.13 (≈ 4.78 µM) | 0.78 (≈ 1.19 µM) | 6.25 (≈ 9.55 µM) | 50 (≈ 76.4 µM) | 12.5 (≈ 19.1 µM) | Cn1nnnc1SCC1=C(C(=O)O)N2C(=O)C(NC(=O)C(NC(=O)c3cnc4sccc4c3O)c3ccc(O)cc3)C2SC1 (centres unmarked) [Example 159] |  |  |  |  |  |  |  | 
1.56 (≈ 2.19 µM) | 12.5 (≈ 17.6 µM) | 6.25 (≈ 8.79 µM) | 6.25 (≈ 8.79 µM) | 0.78 (≈ 1.1 µM) | 12.5 (≈ 17.6 µM) | 50 (≈ 70.3 µM) | 12.5 (≈ 17.6 µM) | CSc1ncc2c(O)c(C(=O)NC(C(=O)NC3C(=O)N4C(C(=O)O)=C(CSc5nnnn5C)CSC34)c3ccc(CO)cc3)cnc2n1 (centres unmarked) [Example 109] |  |  |  |  |  |  |  | 

Continued, compound first:

SMILES | MIC [1] [µg/mL] | MIC [2] [µg/mL] | MIC (Escherichia coli NIHJ) [µg/mL] | MIC [3] [µg/mL] | MIC (Proteus vulgaris HX 19) [µg/mL] | MIC [4] [µg/mL] | MIC (Serratia No. 72) [µg/mL] | MIC [5] [µg/mL] | Minimum Inhibitory Concentration [1] [µg/mL] | Minimum Inhibitory Concentration [2] [µg/mL] | Minimum Inhibitory Concentration (Escherichia coli NIHJ) [µg/mL] | Minimum Inhibitory Concentration ([3]; Klebsiella pneumoniae 602) [µg/mL] | Minimum Inhibitory Concentration (Proteus vulgaris HX 19) [µg/mL] | Minimum Inhibitory Concentration [4] [µg/mL] | Minimum Inhibitory Concentration (Serratia No. 72) [µg/mL] | Minimum Inhibitory Concentration [5] [µg/mL]
CC(=O)OCC1=C(C(=O)O)N2C(=O)C(NC(=O)C(NC(=O)c3cnc4nc(C)ccc4c3O)c3cccc(N)c3)C2SC1 (centres unmarked) [Example 62] | 1.56 (≈ 2.57 µM) | 6.25 (≈ 10.3 µM) | 12.5 (≈ 20.6 µM) | 3.13 (≈ 5.16 µM) | 0.39 (≈ 0.643 µM) | 6.25 (≈ 10.3 µM) | 100 (≈ 165 µM) | 25 (≈ 41.2 µM) |  |  |  |  |  |  |  | 
Nc1cccc(C(NC(=O)c2cnc3cccnc3c2O)C(=O)NC2C(=O)N3C(C(=O)O)=C(CSc4cnn[nH]4)CSC23)c1 (centres unmarked) [Example 54] | 0.78 (≈ 1.23 µM) | 6.25 (≈ 9.86 µM) | 1.56 (≈ 2.46 µM) | 3.13 (≈ 4.94 µM) | 0.1 (≈ 0.158 µM) | 3.13 (≈ 4.94 µM) | 12.5 (≈ 19.7 µM) | 3.13 (≈ 4.94 µM) |  |  |  |  |  |  |  | 
O=C(O)C1=C(CSc2nnc(CO)s2)CSC2C(NC(=O)C(NC(=O)c3cnc4cccnc4c3O)c3ccc(O)c(O)c3)C(=O)N12 (centres unmarked) [Example 178] | 0.78 (≈ 1.12 µM) | 6.25 (≈ 8.96 µM) | 3.13 (≈ 4.49 µM) | 1.56 (≈ 2.24 µM) | 0.2 (≈ 0.287 µM) | 3.13 (≈ 4.49 µM) | 12.5 (≈ 17.9 µM) | 6.25 (≈ 8.96 µM) |  |  |  |  |  |  |  | 
CSc1ncc2c(O)c(C(=O)NC(C(=O)NC3C(=O)N4C(C(=O)[O-])=C(COC(C)=O)CSC34)c3ccc(O)cc3)cnc2n1.[Na+] (centres unmarked) [Example 137] |  |  |  |  |  |  |  |  | 1.56 | 12.5 | 12.5 | 12.5 | 1.56 | 12.5 | 100 | 50
CC(=O)OCC1=C(C(=O)O)N2C(=O)[C@@H](NC(=O)[C@H](NC(=O)c3cnc4nc(C)ccc4c3O)c3ccc(NC(N)=O)cc3)[C@H]2SC1 [Example 8] | 0.78 (≈ 1.2 µM) | 6.25 (≈ 9.62 µM) | 6.25 (≈ 9.62 µM) | 12.5 (≈ 19.2 µM) | 0.39 (≈ 0.6 µM) | 6.25 (≈ 9.62 µM) | 50 (≈ 77 µM) | 12.5 (≈ 19.2 µM) |  |  |  |  |  |  |  | 
